Data reported in patent US6774128B2, “Methods for prevention and treatment of gastrointestinal disorders” (Johns Hopkins University, priority 2000, dated 2004).
“Also recorded” adds a separate entry of the source. Read-outs that look alike come from different tables or passages of the source.

Key:
[1] = tested on: STZ-diabetic and NOD-diabetic mice; assay: Gastric emptying of phenol red-labeled liquid meal in diabetic mice; type: in vivo, mouse; conditions: for t½ for gastric emptying: 1 mg/kg intraperitoneal 20 minutes before; for gastric emptying (20% dextrose): NOD-diabetic and STZ-diabetic mice after 1 week of insulin treatment
Description: Animals. Mice were allowed free access to food and water except when fasted, as indicated for experiments. Wild-type mice (C57BL/6) were purchased from The Jackson Laboratory (Bar Harbor, Me., USA). nNOS^−/− mice were obtained following targeted genomic deletion of nNOS (15) and have the genetic background of C57BL/6 mice (28). For STZ-induced diabetes, adult male mice (C57BL/6) were injected intraperitoneally with a single dose of STZ (200 mg/kg in 0.1 M sodium citrate) as described elsewhere (29), whereas control mice were injected with an equal volume of vehicle (sodium citrate). STZ-treated mice were used for experiments 8 weeks after STZ injection. […]; Boehringer Mannheim, Indianapolis, Ind., USA). The average serum glucose levels for wild-type animals and the STZ diabetic mice 8 weeks after injection were 99 mg/dL and 388 mg/dL, respectively (Table 1). Adult male nonobese diabetic (NOD/LtJ [NOD]) mice were obtained at 8-10 weeks of age (The Jackson Laboratory). Serum glucose levels were also monitored weekly with the Accu-Check monitor. NOD-prediabetic mice and NOD-diabetic mice had average serum glucose levels of 88 mg/dL and 232 mg/dL, respectively (Table 1). For the indicated experiments, NOD-prediabetic mice were sacrificed at 10 weeks of age after serum glucose levels were confirmed, whereas NOD-diabetic mice were sacrificed at 30-32 weeks of age after elevated serum glucose levels were confirmed.
(§1) Insulin treatment was given using LinBit, a sustained-release insulin implant (0.1 U/d/implant; LinShin Canada Inc., Toronto, Ontario, Canada). After brief anesthesia with diethyl echer, the insulin implant was quickly immersed in Betadine solution (McKesson, San Francisco, Calif., USA) and implanted subcutaneously with a 12-gauge needle. Serum glucose levels were monitored, and insulin-treated animals were used for experiments after 12 hours or 1 week of insulin therapy, as indicated. The serum glucose levels after 1 week of insulin treatment are shown (Table 1), as are the serum glucose levels after 12 hours of insulin treatment (see FIG. 2b).
As indicated, insulin-treated diabetic mice were treated with the nNOS inhibitor 7-nitroindazole (7-NI; Lancaster, Wyndham, N.H., USA) by two intraperitoneal injections (50 mg/kg) of a suspension in sesame oil (Sigma Chemical Co., St. Louis, Miss., USA) given 24 hours and 30 minutes before determination of gastric emptying. […] For all experiments, control animals were similarly injected with vehicle (either sesame oil or water).
Gastric emptying. Gastric emptying of liquids was determined as described previously (30). For any experiments using diabetic mice, serum glucose levels of all animals were confirmed immediately before monitoring gastric emptying. Adult mice were sedated briefly (<30 seconds) with diethyl ether. Mice fully recovered from sedation in less than 1 minute. During brief sedation, oral-gastric intubation was accomplished with a 21-gauge needle fitted with a thin plastic catheter (8 cm in length). Then, 0.2 mL of 1 mg/mL phenol red-labeled 20% dextrose (or other solution, if indicated) was instilled into the stomach. Mice were placed in clean, empty cages until the time of sacrifice. At the indicated time (0-120 minutes), mice were rapidly sacrificed by cervical dislocation and the stomach was excised. The duodenum was ligated, followed by transverse resection of the lower esophagus, and the stomach was removed from the body cavity. Excised stomachs were homogenized with a polytron (Brinkmann, Westbury, N.Y., USA) homogenizer in 3 mL of 95% ethyl alcohol. After centrifugation (40,000 g for 20 minutes), an aliquot of the supernatant was used to determine phenol red content. Standard curve was constructed and found to be linear over the range of 1-20 microgram of phenol red. Phenol red content was monitored at 410 nm, at which a single peak of absorbance was observed when extracted with ethanol. […]

[2] = tested on: pyloric sphincter muscle; assay: Organ bath physiology: EFS-evoked NO-dependent NANC relaxation of ex vivo pylori; set-up: species or system mouse
[3] = tested on: nNOS; assay: Immunohistochemistry of nNOS protein expression in pyloric myenteric neurons; type: in vivo, mouse; conditions: NOD-diabetic and STZ-diabetic mice, insulin treatment (1 week)
Description: as §1
Immunohistochemistry. For nondiabetic studies, wild-type animals or 10-week-old NOD-prediabetic animals were used. For diabetic studies, we used animals 8 weeks after STZ injection (STZ diabetic) or 30-week-old NOD mice (NOD-diabetic). Pylori or other tissues were dissected and immediately imbedded (Tissue-Tek OCT 4583; Sakura Finetek Inc., Torrence, Calif., USA) and placed in dry ice and allowed to freeze. Routine sections (10 micrometer) were cut using a cryostat (−19° C.; Leica Microm, Allendale, N.J., USA). For immunostaining, slides were fixed for 5 minutes in 4.0% paraformaldehyde, washed in PBS, and permeablized with 0.1% Triton X-100 in PBS. […]

[4] = tested on: nNOS mRNA; assay: In situ hybridization of nNOS mRNA in pyloric myenteric neurons; type: in vivo, mouse; conditions: NOD-diabetic and STZ-diabetic mice, insulin treatment (1 week)
Description: as §1
In situ hybridization. In situ hybridization for nNOS was performed as described previously (31,32).

[5] = tested on: nNOS; assay: Western blot analysis of nNOS protein expression in intestinal tissues; type: in vivo, mouse; conditions: NOD-diabetic mice, insulin treatment (1 week)
Description: as §1
Western blot analysis. Mouse tissues were homogenized in ice-cold buffer containing 50 mM Tris (pH 7.4, 25° C.), 100 mM NaCl, 1 mM EGTA, and protease inhibitors (4 microgram/mL leupeptin, 2 microgram/mL antipain, 2 microgram/mL pepstatin, and 1 mM PMSF). After centrifugatin (1.5 minutes, 16,000 g), the supernatants were collected and protein content was determined (Coomassie protein assay; Pierce Chemical Co., Rockville, Ill., USA). Samples (50 microgram protein) were subjected to SDS-PAGE (4-12% gradient gel; Bis-tris NuPage; Novex, San Diego, Calif., USA) and then transferred to PVDF membranes (Immobilon-P; Millipore Corp., Bedford, Mass., USA). […]

[6] = wild-type pylori precontracted with 0.1 micromolar SP, inhibitor 0.1 mM

O=[N+]([O-])c1cccc2cn[nH]c12 [Compound 7-NI, 7-nitroindazole]
gastric emptying at 30 minutes ([1]; insulin-treated (1 week) STZ-diabetic and NOD-diabetic mice, 7-NI 50 mg/kg intraperitoneal, 24 hours and 30 minutes before): reverses the restoration of normal gastric emptying; also recorded: delays gastric emptying
NANC relaxation ([2]; pylori of insulin-treated diabetic mice, in the presence of 0.1 mM 7-NI): completely blocked
EFS-evoked NANC relaxation [2, 6]: blocked

NC(=NCCC[C@H](N)C(=O)O)N[N+](=O)[O-] [L-NNA, N-nitro-[.-arginine]
EFS-evoked NANC relaxation [2, 6]: blocked

CCCc1nn(C)c2c(=O)[nH]c(-c3cc(S(=O)(=O)N4CCN(C)CC4)ccc3OCC)nc12 [sildenafil, 5-[2-ethoxy-5-(4-methylpiperazin-1-ylsulphonyl)phenyl]-1-methyl-3-n-propyl-1,6-dihydro-7H-pyrazolo[4,3d]pyrimidin-7-one]
effect on delayed gastric emptying ([1]; STZ-diabetic and NOD-diabetic mice, sildenafil 1 mg/kg): reverses the delayed gastric emptying; also recorded: reveres delayed gastric emptying
t½ for gastric emptying ([1]; sildenafil-treated NOD-diabetic mice): 36 min
t½ for gastric emptying ([1]; sildenafil-treated STZ-diabetic mice): 30 min

insulin
gastric emptying (20% dextrose) [1]: restored to normal
gastric emptying (20% dextrose) ([1]; listed as Insulin): reverses delayed gastric emptying
t½ of gastric emptying ([1]; STZ-diabetic mice after insulin treatment for 12 hours (subcutaneous implant), sham STZ-diabetic 60, wild-type 36): 54 min
EFS-evoked NANC relaxation ([2]; pylori of NOD-diabetic mice after insulin treatment (1 week)): partially restores NANC relaxation
EFS-evoked NANC relaxation ([2]; pylori of STZ-diabetic mice after insulin treatment (1 week)): restores NANC relaxation
nNOS protein expression in pyloric myenteric neurons [3]: reverse the loss of nNOS expression; also recorded: near normal levels
nNOS mRNA expression in pylori [4]: substantially restores
nNOS protein expression (Western blot) in intestinal regions [5]: fully reversible
nNOS protein expression (Western blot) in intestinal regions ([5]; listed as Insulin): completely reverses the loss of nNOS protein

retrodotoxin [TTX]
EFS-evoked NANC relaxation [2]: completely blocked
